The text below walks through data of US20220193029A1, “BRYOSTATIN COMPOUNDS FOR ENHANCEMENT OF IMMUNOTHERAPY” (priority 2019, published 2022).

One assay deals with T1, PKCα (Homo sapiens, UniProt P17252).
T1 construct: purchased Invitrogen
The assay is described as follows: cell-free competitive PKC binding assay with [3H]-phorbol dibutyrate. The settings on record: competition with [3H]-PDBu, recombinant human PKC isoform. The procedure: (§1) Because a prerequisite for PKC pathway involvement is binding to PKC, compounds were initially evaluated for PKC affinity in a cell-free competitive binding assay with tritiated phorbol dibutyrate ([^3H]-PDBu). Assays were performed with representative members of both the conventional (PKCα) and novel (PKCδ) PKC families. Subsequently, compounds were assayed for PKC activation in living cells using an isoform translocation assay.
(§2) To a 50 mL polypropylene tube was added Tris-HCl (pH 7.4, 1 M, 1 mL), KCl (1 M, 2 mL), CaCl2) (0.1 M, 30 μL), and bovine serum albumin (BSA, 40 mg, Sigma-Aldrich). This mixture was diluted to 20 mL with deionized H2O and mixed gently. The buffer was stored on ice until use.
(§3) For every two assays, 3.5 mg phosphatidylserine (Avanti Polar Lipids, porcine, 25 mg/mL CHCl3 solution) was concentrated by removing chloroform under a stream of nitrogen followed by reduced pressure. The solid PS was suspended as vesicles in freshly prepared PKC binding assay buffer (3.5 mL) by sonicating six times for 30 sec, with a 30 sec rest between sonications (Branson Sonifier 250, power=2, 50% duty cycle). The resulting milky cloudy mixture (1 mg/mL) was stored on ice until use.
(§4) Assay PKC was prepared by dissolving a 4 μg aliquot of the indicated recombinant human PKC isoform (Invitrogen) into 11.6 mL of PKC binding assay buffer (this amount is sufficient for two assays). The diluted PKC was stored on ice for immediate use.
(§5) ^3H-PDBu (American Radiolabeled Chemicals, Inc.; 1 mCi/mL acetone solution; specific activity: 20 Ci/mmol) was diluted […] with DMSO. The resulting 500 nM stock solution was further diluted with DMSO to 30 nM.
(§6) Compound dilutions were prepared by serially diluting from a chosen “high” concentration by factors of 3 or 4.
(§7) To a polypropylene tube was added 3.3 mL of 1 mg/mL PS vesicles solution, 11 mL of PKC isoform solution, and 1.1 mL of 30 nM ^3H-PDBu solution were added. The resulting solution was vortexed to mix and stored on ice.
(§8) Materials: • Glass-fiber filters (Whatman GF/B) were prepared by soaking them in a solution of aqueous polyethyleneimine (10% by vol, 18 mL) in deionized water (600 mL) for ≥1 h. • 500 mL “rinsing buffer” of 20 mM Tris, pH 7.4 was cooled on ice for the duration of the incubation period and for the remainder of the assay.
(§9) Triplicate data points were obtained for each analog concentration. For each data point, 280 μL of “Master Mix” Solution and 20 μL of analog compound at a specified concentration were added to a polypropylene tube. […] Maximal ^3H-PDBu binding was assessed in triplicate by substitution of the analog compound with 20 μL DMSO. The solutions were vortexed to mix, incubated at 37° C. for 10 min, and incubated on ice for at least 30 min prior to filtration. Using a Brandel Harvester, the assay contents from each polypropylene tube were vacuum-filtered through polyethylenimine-soaked filters, washing with rinsing buffer (3×) and drying first under vacuum for 5 min and then under ambient conditions for ≥2 h. The resulting filters had circular perforations for each data point, which were removed with forceps and placed in a scintillation vial. Scintillation vials were filled with Bio-Safe II scintillation fluid (5 mL) and measured for radioactivity using a Beckman LS 6000SC scintillation counter. Counts per minute (cpm) were averaged for each triplicate dilution. The data were plotted—cpm vs. log(concentration)—using Prism® by GraphPad Software and an IC50 was determined using that program's built-in one-site competition least squares regression function. Ki values were calculated using the equation: Ki=IC50/(1+([3H−PDBu]/Kd)). The Kd of ^3H-PDBu for PKC isoforms was measured separately via saturation binding experiments under identical conditions.

The next assay deals with T2, PKCδ (Homo sapiens, UniProt Q05655).
T2 construct: purchased Invitrogen
T2 sequence (Q05655 whole entry): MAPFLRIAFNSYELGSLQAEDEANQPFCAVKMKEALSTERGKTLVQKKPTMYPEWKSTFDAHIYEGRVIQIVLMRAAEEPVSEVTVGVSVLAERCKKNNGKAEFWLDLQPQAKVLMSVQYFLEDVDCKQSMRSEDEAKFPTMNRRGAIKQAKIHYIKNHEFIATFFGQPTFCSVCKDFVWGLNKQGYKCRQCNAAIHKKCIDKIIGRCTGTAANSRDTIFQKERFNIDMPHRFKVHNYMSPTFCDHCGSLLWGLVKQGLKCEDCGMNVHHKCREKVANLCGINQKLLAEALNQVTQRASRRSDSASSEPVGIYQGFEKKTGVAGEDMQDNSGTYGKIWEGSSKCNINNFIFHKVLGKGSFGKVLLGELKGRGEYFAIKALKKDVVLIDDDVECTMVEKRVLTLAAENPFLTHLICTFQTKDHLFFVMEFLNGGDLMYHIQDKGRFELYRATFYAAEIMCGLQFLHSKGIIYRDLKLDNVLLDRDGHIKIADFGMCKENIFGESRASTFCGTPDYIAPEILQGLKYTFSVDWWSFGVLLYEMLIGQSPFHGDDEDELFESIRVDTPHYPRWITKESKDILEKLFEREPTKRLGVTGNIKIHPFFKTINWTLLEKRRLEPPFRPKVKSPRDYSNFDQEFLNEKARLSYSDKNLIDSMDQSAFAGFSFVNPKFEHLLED
The description is as above. The settings on record: competition with [3H]-PDBu, recombinant human PKC isoform. As to the method: as §1, §2, §3, §4, §5, §6, §7, §8
Triplicate data points were obtained for each analog concentration. For each data point, 280 μL of “Master Mix” Solution and 20 μL of analog compound at a specified concentration were added to a polypropylene tube. […] Maximal ^3H-PDBu binding was assessed in triplicate by substitution of the analog compound with 20 μL DMSO. The solutions were vortexed to mix, incubated at 37° C. for 10 min, and incubated on ice for at least 30 min prior to filtration. Using a Brandel Harvester, the assay contents from each polypropylene tube were vacuum-filtered through polyethylenimine-soaked filters, washing with rinsing buffer (3×) and drying first under vacuum for 5 min and then under ambient conditions for ≥2 h. The resulting filters had circular perforations for each data point, which were removed with forceps and placed in a scintillation vial. Scintillation vials were filled with Bio-Safe II scintillation fluid (5 mL) and measured for radioactivity using a Beckman LS 6000SC scintillation counter. Counts per minute (cpm) were averaged for each triplicate dilution. The data were plotted—cpm vs. log(concentration)—using Prism® by GraphPad Software and an IC50 was determined using that program's built-in one-site competition least squares regression function. […] The Kd of ^3H-PDBu for PKC isoforms was measured separately via saturation binding experiments under identical conditions.

The next assay concerns PKC. Briefly: cell-free PKC binding assay, isoform not given. More on the design: species or system human. The procedure: as §1, §4, §9
Assay [1] has as its system CD22 surface expression in JB cells. Briefly: CD22 surface expression assay, AIDS-NHL cell line JB. The note with it: 1 nM or 10 nM, 48 hours.
Description: (§10) AIDS-NHL cell lines were incubated in IF10 medium, consisting of IMDM medium (Life technologies) containing 10% fetal bovine serum (FBS, Omega Scientific), 100 units/mL of penicillin, and 100 μg/ml of streptomycin (Invitrogen). Cells were incubated at 37° C. in 5% CO2.
(§11) Cells were exposed to compound for the either 24 or 48 h before staining and flow cytometric analysis of receptor levels.
(§12) Cells in each well were washed with phosphate buffered saline (PBS) containing 2% FBS, then cells were centrifuged for 9 min at 233 xg and resuspended in 50 μL of a 1:1 dilution of phosphate buffered saline (PBS): Human AB serum (Sigma). […] Stained samples were stored at 4° C. Flow cytometry samples were analyzed using a FACSCelesta (BD Biosciences) flow cytometer and data were analyzed using FlowJo software (version 10).
(§13) Panel C: JB cells were incubated with 1 nM (left hand bars) or 10 nM (right hand bars) of compound for 48 hours. CD22 surface expression was then assayed by flow cytometry (n=6 biological replicates; data presented as mean values ±SE). Panel D: 2F7 cells were incubated with 1 nM (left hand bars) or 10 nM (right hand bars) of compound for 48 hours. CD22 surface expression was then assayed by flow cytometry (n=6 biological replicates; data presented as mean values ±SE).
The subject of assay [2] is CD22 surface expression in 2F7 cells. Briefly: CD22 surface expression assay, AIDS-NHL cell line 2F7. The note with it: 1 nM or 10 nM, 48 hours.
Description: as §10, §11, §12, §13

pKi: −log10 of the molar value.

As to `CCCCCC#CC(=O)O[C@H]1/C(=C/C(=O)OC)C[C@H]2C[C@H]([C@@H](C)O)OC(=O)C[C@H](O)C[C@@H]3C[C@H](OC(C)=O)C(C)(C)[C@](O)(C[C@@H]4C[C@@](O)(CO)C[C@H](/C=C/C(C)(C)[C@]1(O)O2)O4)O3` [SUW203], the pKi on PKCα is 9.00; on PKCδ it was 8.39. The “binding affinity to PKC, in words” value in the assay on PKC is “single-digit nanomolar affinity”.

For the compound `CCC/C=C/C=C/C(=O)O[C@H]1/C(=C/C(=O)OC)C[C@H]2C[C@H]([C@@H](C)O)OC(=O)C[C@H](O)C[C@@H]3C[C@H](OC(C)=O)C(C)(C)[C@](O)(C[C@@H]4C[C@H](OC(C)=O)C[C@H](/C=C/C(C)(C)[C@]1(O)O2)O4)O3` [SUW206], the figures for the negative-log Ki (pKi) on PKCα and at PKCδ were 9.00 and 8.89, respectively.

Turning to `CCC/C=C/C=C/C(=O)O[C@H]1/C(=C/C(=O)OC)C[C@H]2C[C@H]([C@@H](C)O)OC(=O)C[C@H](O)C[C@@H]3C[C@H](OC(C)=O)C(C)(C)[C@](O)(C[C@@H]4C[C@@H](OC(C)=O)C[C@H](/C=C/C(C)(C)[C@]1(O)O2)O4)O3` [SUW207], the negative logarithm of the Ki (pKi) on PKCα was 8.70; on PKCδ, 8.27.

In the case of `CCCC=CC=CC(=O)OC1C(=CC(=O)OC)CC2CC(C(C)O)OC(=O)CC(O)CC3CC(OC(C)=O)C(C)(C)C(O)(CC4CC(=CC(=O)OCC)CC(C=CC(C)(C)C1(O)O2)O4)O3` (centres unmarked) [SUW217], the negative logarithm of the Ki (pKi) was 8.04 at PKCα and 8.03 at PKCδ.

In the case of `CCCC=CC=CC(=O)OC1C(=CC(=O)OC)CC2CC(C(C)O)OC(=O)CC(O)CC3CC(OC(C)=O)C(C)(C)C(O)(CC4CC(=CC(=O)OCC)CC(C=CC(C)(C)C1(O)O2)O4)O3` (centres unmarked) [SUW218], the negative logarithm of the Ki (pKi) was 8.15 on PKCα and 8.18 on PKCδ.

Consider `CCCCCCCC(=O)O[C@H]1/C(=C/C(=O)OC)C[C@H]2C[C@H]([C@@H](C)O)OC(=O)C[C@H](O)C[C@@H]3C[C@H](OC(C)=O)C(C)(C)[C@](O)(C[C@@H]4C[C@@H](C)C[C@H](/C=C/C(C)(C)[C@]1(O)O2)O4)O3` [SUW226], for which the pKi on PKCα was 8.24; on PKCδ, 8.18.

`C=CCOC(=O)/C=C1/C[C@H]2C[C@]3(O)O[C@H](C[C@@H](O)CC(=O)O[C@@H]([C@@H](C)O)C[C@@H]4C/C(=C\C(=O)OC)[C@H](OC(=O)/C=C/C=C/CCC)[C@@](O)(O4)C(C)(C)/C=C/[C@@H](C1)O2)C[C@H](OC(C)=O)C3(C)C` [SUW229]: the figures for the negative-log Ki (pKi) at PKCα and at PKCδ were 8.74 and 8.92, respectively. Moreover, the “upregulated CD22 surface expression” value in assay [1] and in assay [2] was about 2 fold throughout.
